Values of other authors, collected in patent publication EP1085805B1, “USE OF AT LEAST ONE ACID FROM THE CITRIC ACID CYCLE COMBINED WITH GLYCERINE AS A PESTICIDE” (Biolink Technologies AG, priority 1998, dated 1999).

**Q.** With `ClC1=C(Cl)[C@]2(Cl)[C@@H]3[C@@H]4C[C@@H]([C@H]5O[C@@H]45)[C@@H]3[C@@]1(Cl)C2(Cl)Cl` [Dieldrin] as the compound, how does the “LD50 Wert Ratte oral” value read?
**A.** 56 mg/kg Körpergewicht

**Q.** With `Cl[C@H]1[C@H](Cl)[C@@H](Cl)[C@@H](Cl)[C@H](Cl)[C@H]1Cl` [Lindan] as the compound, how does the “LD50 Wert Ratte oral” value read?
**A.** 88 mg/kg Körpergewicht
